From PubChem BioAssay (NCI) come the findings set out here.

Among the test systems are DU-145 prostate; T-47D breast; TK-10 renal; SK-MEL-2 melanoma; EKVX NSCLC; OVCAR-3 ovarian; SF-295 CNS; HL-60(TB) leukemia; ACHN renal.
Test in all cases: growth of human tumour cells (NCI), 48 h

Molecules are shown by their SMILES.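 Tested at 5 concentrations; 48 h exposure; 96-well plates; endpoints linearly interpolated, else capped at highest concentration. GI50: concentration for 50% inhibition of growth. Definition used: TGI = concentration required for complete inhibition of growth.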

In the case of `CO/N=C(\COc1ccc2c(c1)oc(=O)c1cc(OC)ccc12)c1cccc(OC)c1`, the GI50 with DU-145 prostate, with T-47D breast, in the assay on TK-10 renal, in the assay on SK-MEL-2 melanoma, in the assay on EKVX NSCLC and in the assay with OVCAR-3 ovarian was above 100 µM throughout. In addition, in the assay on SF-295 CNS, the GI50 was above 100 µM. The TGI with DU-145 prostate, in the assay on T-47D breast, in the assay on TK-10 renal, in the assay with SK-MEL-2 melanoma, in the assay on EKVX NSCLC and with OVCAR-3 ovarian was above 100 µM throughout. For the same compound, the TGI with SF-295 CNS is above 100 µM.

In the case of `Cc1cc(Cl)ccc1NC(=O)CC1SC(N)=NC1=O` (stereo not drawn), the TGI in the assay on HL-60(TB) leukemia, in the assay on TK-10 renal, in the assay on SK-MEL-2 melanoma, in the assay with ACHN renal, with EKVX NSCLC and in the assay on OVCAR-3 ovarian was above 100 µM in each case. In addition, the TGI in the assay on SF-295 CNS was above 100 µM.

With `CC(=O)OC1(C#N)CC2OC1C1C2N1C(=O)OC(C)(C)C` (stereo not drawn), the TGI with HL-60(TB) leukemia, with TK-10 renal, in the assay on SK-MEL-2 melanoma, in the assay with ACHN renal and in the assay on EKVX NSCLC was above 100 µM in each case.

As to `CN1C(=O)c2cc([N+](=O)[O-])ccc2[C@H]2C(=O)c3cc4c(cc3[C@H]21)OCO4`, the GI50 with HL-60(TB) leukemia is 0.215 µM; with DU-145 prostate it was 0.0506 µM; in the assay on T-47D breast it was 0.321 µM; in the assay on TK-10 renal, 1.28 µM; in the assay on SK-MEL-2 melanoma it was 1.91 µM; in the assay on ACHN renal, 0.0134 µM. Also, the GI50 with EKVX NSCLC was 0.993 µM; with OVCAR-3 ovarian it was 0.0751 µM; in the assay on SF-295 CNS it was below 0.01 µM. The TGI in the assay with HL-60(TB) leukemia was above 100 µM; in the assay on DU-145 prostate, 14.9 µM; with T-47D breast, above 29.4 µM; in the assay with SK-MEL-2 melanoma it was above 45.8 µM; in the assay on ACHN renal, 0.0463 µM; in the assay with EKVX NSCLC, above 24.5 µM. Moreover, the TGI came out at 0.455 µM in the assay on OVCAR-3 ovarian and 1.01 µM with SF-295 CNS.

On to `COc1ccc2c(c1)C(=O)/C(=C/c1ccc([N+](=O)[O-])s1)O2`, for which the GI50 with HL-60(TB) leukemia was 0.713 µM; in the assay with DU-145 prostate, 1.79 µM; in the assay with T-47D breast, 0.248 µM; with TK-10 renal, 0.767 µM; with SK-MEL-2 melanoma, 0.325 µM; with ACHN renal it was 0.263 µM. For the same compound, the GI50 in the assay on OVCAR-3 ovarian is 0.252 µM; in the assay with SF-295 CNS, 2.95 µM. Further, the TGI is above 26.1 µM in the assay on HL-60(TB) leukemia; above 100 µM in the assay with DU-145 prostate; 0.728 µM with T-47D breast; 0.875 µM in the assay on SK-MEL-2 melanoma; 0.722 µM in the assay with ACHN renal; 0.548 µM in the assay on OVCAR-3 ovarian. The TGI with SF-295 CNS stood at 9.61 µM.

On to `CO/N=C(\COc1ccc2c(c1)oc(=O)c1cc(OC)ccc12)c1ccc(F)cc1`, for which the GI50 in the assay with DU-145 prostate is 22.8 µM; in the assay with T-47D breast it was 25 µM; in the assay with TK-10 renal it was 14.7 µM; in the assay with SK-MEL-2 melanoma, 23.1 µM; in the assay with ACHN renal, 16.8 µM; in the assay on EKVX NSCLC, 35.2 µM. The values for the GI50 with OVCAR-3 ovarian and with SF-295 CNS were 16.7 µM and 24.1 µM, respectively. Also, the TGI in the assay with DU-145 prostate was 62.2 µM; with T-47D breast, 90.3 µM; in the assay with TK-10 renal, 29.5 µM; in the assay with SK-MEL-2 melanoma it was 72.8 µM; with ACHN renal, 32.1 µM; in the assay on EKVX NSCLC, above 100 µM. Moreover, the TGI with OVCAR-3 ovarian was 34.2 µM; in the assay on SF-295 CNS, 87.5 µM.

Regarding `COC(=O)c1c(C)cc2c(c1O)C1(O)C(=O)c3cc4c(c(O)c3C(=O)C1(OC)C(O)C2)C(=O)C=C(NC1OC(C)C(OC)C(O)C1OC)C4=O` (stereo not drawn), the TGI in the assay with HL-60(TB) leukemia was determined as 0.184 µM; in the assay on TK-10 renal, 0.293 µM; in the assay with SK-MEL-2 melanoma, 0.149 µM; in the assay on ACHN renal it was 0.205 µM; with EKVX NSCLC, 0.864 µM; in the assay with OVCAR-3 ovarian, 0.558 µM. In the assay on SF-295 CNS, the TGI was 0.146 µM.

In the case of `CN(C)CC(C)(C)C(/C=C/c1ccccc1)=N\Nc1ccccc1`, the TGI with HL-60(TB) leukemia turned out to be 7.49 µM; in the assay on TK-10 renal, 3.48 µM; in the assay with SK-MEL-2 melanoma, 31 µM; with ACHN renal it was 1.25 µM; in the assay with EKVX NSCLC, 16.4 µM; with OVCAR-3 ovarian it was 14 µM. This compound also came in with a TGI in the assay on SF-295 CNS of 0.907 µM.

With `Cc1cc(NS(=O)(=O)c2ccc(NC(=O)c3cccc4cc5ccccc5nc34)cc2)no1`, the TGI in the assay with TK-10 renal was determined as 89.3 µM; with SK-MEL-2 melanoma it was 41.4 µM; in the assay with ACHN renal it was 29.8 µM; in the assay with EKVX NSCLC, 90.9 µM; in the assay with OVCAR-3 ovarian it was 45.5 µM; in the assay on SF-295 CNS it was 59.1 µM.

With `N#CCc1ccc(/C(C#N)=C2/OC(=N)C(c3ccc(CC#N)cc3)C2=O)cc1` (stereo not drawn), the TGI in the assay with HL-60(TB) leukemia, with TK-10 renal, in the assay on SK-MEL-2 melanoma, in the assay with ACHN renal, in the assay on EKVX NSCLC and with OVCAR-3 ovarian was above 100 µM each time. This compound also had a TGI in the assay with SF-295 CNS above 100 µM.

Consider `Cc1ccc(/C=C/C(=O)c2ccc(N)cc2)c(C)c1`, for which the GI50 in the assay with HL-60(TB) leukemia is 2.89 µM; with DU-145 prostate, 10.8 µM; in the assay with T-47D breast it was 2.05 µM; with TK-10 renal it was 3.13 µM; in the assay with SK-MEL-2 melanoma it was 14 µM; in the assay on ACHN renal it was 1.77 µM. For the same compound, the GI50 is 19.5 µM in the assay with EKVX NSCLC and 19.8 µM in the assay with SF-295 CNS. The TGI is 11.4 µM in the assay on HL-60(TB) leukemia; 22.7 µM with DU-145 prostate; 4.64 µM in the assay with T-47D breast; 11.9 µM in the assay on TK-10 renal; 28.4 µM in the assay on SK-MEL-2 melanoma; 3.2 µM with ACHN renal. Further, the figures for the TGI in the assay on EKVX NSCLC and with SF-295 CNS were 38.8 µM and 40.2 µM, respectively.

For the compound `O=C1C2C(C(=O)N1c1ccccc1)C1(c3ccccc3)OC2(c2ccccc2)c2ccccc21` (stereo not drawn), the TGI in the assay with HL-60(TB) leukemia, with TK-10 renal, with SK-MEL-2 melanoma, in the assay with ACHN renal, in the assay on EKVX NSCLC and in the assay with OVCAR-3 ovarian was above 100 µM in each case. Besides, the TGI in the assay on SF-295 CNS is above 100 µM.

`CC(=O)c1c(O)ccc2c(C)c(C(=O)O)oc12`: the GI50 in the assay with DU-145 prostate, in the assay on T-47D breast, with TK-10 renal, with ACHN renal, with EKVX NSCLC and with OVCAR-3 ovarian was above 100 µM each time. In the assay with SF-295 CNS, the GI50 was above 100 µM. For the same compound, the TGI with DU-145 prostate, in the assay on T-47D breast, in the assay on TK-10 renal, in the assay with ACHN renal, in the assay with EKVX NSCLC and in the assay with OVCAR-3 ovarian was above 100 µM each time. This compound also registered a TGI with SF-295 CNS above 100 µM.
